Reference: PubChem BioAssay AID1259408 (Genetic Toxicology Data Bank (GENE-TOX), 2018)
The source made the active and inactive calls. How the calls were made is not given here.

Test system: GENE-TOX genotoxicity assays, various organisms and cells
Assay: GENE-TOX mutagenicity studies
Details: for call: Assay Type: In vivo carcinogenicity studies
[1] = Species/Cell Type: Chinese hamster lung (V79) cells, Assay Type: Forward gene mutation at the HPRT or ouabain locus, Assay Code: V79-, Evaluation Type: Evaluation A (Pre-1980)
[2] = Species/Cell Type: Drosophila melanogaster, Assay Type: Sex-linked recessive lethal gene mutation, Assay Code: SRL+, Evaluation Type: Evaluation A (Pre-1980)
[3] = Species/Cell Type: Nonhuman, Assay Type: Sister-chromatid exchange (SCE) in vitro, Assay Code: SC2T, Evaluation Type: Evaluation B (Post-1980)
[4] = Species/Cell Type: Nonhuman, Assay Type: Sister-chromatid exchange (SCE) in vivo, Assay Code: SC3T, Evaluation Type: Evaluation B (Post-1980)
[5] = Species/Cell Type: Drosophila melanogaster, Assay Type: Sex-linked recessive lethal gene mutation, Assay Code: SRLT, Evaluation Type: Evaluation A (Pre-1980)
[6] = Species/Cell Type: Human, Assay Type: Sister-chromatid exchange (SCE) in vitro, Assay Code: SC1T, Evaluation Type: Evaluation B (Post-1980)
[7] = Species/Cell Type: Salmonella typhimurium (one or more of the five standard strains: TA98, TA100, TA1535, TA1537, and TA1538), Assay Type: Histidine reverse gene mutation, Ames assay, Assay Code: SALT, Evaluation Type: Evaluation A (Pre-1980)
[8] = Species/Cell Type: Nonhuman, Assay Code: CCG+L, Evaluation Type: Evaluation A (Pre-1980)
[9] = Species/Cell Type: Bacillus subtilis (H17 vs M45), Assay Type: Rec-assay, spot test, DNA effects (bacterial DNA repair), Assay Code: REW+, Evaluation Type: Evaluation A (Pre-1980)

For FC(F)(F)C(Cl)Br (stereo unspecified), the mutagenic call [1] was “inactive; negative”, the mutagenic call [2] was “active; positive” and the mutagenic call (Species/Cell Type: Human lymphocytes, Assay Type: Sister-chromatid exchange (SCE) in vivo, Assay Code: SCY+, Evaluation Type: Evaluation B (Post-1980)) was “active; positive”. The mutagenic call (Species/Cell Type: Mouse, Sex: Male, Assay Type: Sperm morphology, Assay Code: SPI-, Evaluation Type: Evaluation A (Pre-1980)) was “inactive; negative”, the call (Species/Cell Type: Nonhuman, Assay Code: CCG-L, Evaluation Type: Evaluation A (Pre-1980)) was “inactive; negative” and the mutagenic call [3] was “no conclusion”. For the same compound, the mutagenic call [4] was “no conclusion”, the mutagenic call (Species/Cell Type: Saccharomyces cerevisiae, Assay Type: Mitotic recombination or gene conversion, Assay Code: YEC+, Evaluation Type: Evaluation A (Pre-1980)) was “active; positive” and the mutagenic call (Species/Cell Type: Saccharomyces cerevisiae, Assay Type: Mitotic recombination or gene conversion, Assay Code: YEH+, Evaluation Type: Evaluation A (Pre-1980)) was “active; positive”. For the same compound, the mutagenic call (Species/Cell Type: Saccharomyces cerevisiae, Assay Type: Reverse gene mutation, Assay Code: YER+, Evaluation Type: Evaluation A (Pre-1980)) was “active; positive” and the mutagenic call (Species/Cell Type: Vicia faba, Assay Type: Chromosome aberrations, Assay Code: VIC+D, Dose Response: With dose response, Evaluation Type: Evaluation A (Pre-1980)) was “active; positive”.

For Nc1c(N=Nc2ccc([N+](=O)[O-])cc2)c(S(=O)(=O)O)cc2cc(S(=O)(=O)O)c(N=Nc3ccccc3)c(O)c12, the mutagenic call (Species/Cell Type: Bacillus subtilis (H17 vs M45), Assay Type: Rec-assay, spot test, DNA effects (bacterial DNA repair), Assay Code: REWT, Evaluation Type: Evaluation A (Pre-1980)) was “no conclusion”.

With O=C1CCC(=O)N1CN1CCOCC1 the mutagenic call (Species/Cell Type: Arabidopsis species, Assay Type: Gene mutation, Assay Code: ARM-, Evaluation Type: Evaluation A (Pre-1980)) was “inactive; negative”.

F was tested, and the mutagenic call (Species/Cell Type: Allium cepa, Assay Type: Chromosome aberrations, Assay Code: ALC+D, Dose Response: With dose response, Evaluation Type: Evaluation A (Pre-1980)) was “active; positive”, the mutagenic call (Species/Cell Type: Drosophila melanogaster, Assay Type: Aneuploidy, partial sex chromosome loss, chromosome aberrations, Assay Code: DAPT, Evaluation Type: Evaluation A (Pre-1980)) was “no conclusion” and the mutagenic call (Species/Cell Type: Drosophila melanogaster, Assay Type: Aneuploidy, sex chromosome gain, chromosome aberrations, Assay Code: DAG-F, Evaluation Type: Evaluation A (Pre-1980)) was “inactive; negative”. For the same compound, the mutagenic call (Species/Cell Type: Drosophila melanogaster, Assay Type: Aneuploidy, whole sex chromosome loss, chromosome aberrations, Assay Code: DAC+M, Evaluation Type: Evaluation A (Pre-1980)) was “active; positive”, the mutagenic call [2] was “active; positive” and the mutagenic call [5] was “no conclusion”. The mutagenic call (Species/Cell Type: Human lymphocytes, Assay Type: Sister-chromatid exchange (SCE) in vitro, Assay Code: SCL+, Evaluation Type: Evaluation B (Post-1980)) was “active; positive”, the mutagenic call (Species/Cell Type: Human lymphocytes, Assay Type: Sister-chromatid exchange (SCE) in vitro, Assay Code: SCLT, Evaluation Type: Evaluation B (Post-1980)) was “no conclusion” and the mutagenic call (Species/Cell Type: Human, Assay Type: Sister-chromatid exchange (SCE) in vitro, Assay Code: SC1+, Evaluation Type: Evaluation B (Post-1980)) was “active; positive”. For the same compound, the mutagenic call [6] was “no conclusion”, the mutagenic call (Species/Cell Type: Mammalian polychromatic erythrocytes, Assay Type: Micronucleus test, chromosome aberrations, Assay Code: MNT+, Evaluation Type: Evaluation B (Post-1980)) was “active; positive” and the mutagenic call (Species/Cell Type: Neurospora crassa, Assay Type: Aneuploidy, chromosome aberrations, Assay Code: NEN-, Evaluation Type: Evaluation A (Pre-1980)) was “inactive; negative”. For the same compound, the mutagenic call (Species/Cell Type: Nonhuman lymphocytes or leukocytes, Assay Type: Chromosome aberrations in vivo, Assay Code: CY%-, Evaluation Type: Evaluation A (Pre-1980)) was “inactive; negative”, the mutagenic call (Species/Cell Type: Nonhuman, Assay Type: Sister-chromatid exchange (SCE) in vivo, Assay Code: SC3-, Evaluation Type: Evaluation A (Pre-1980)) was “inactive; negative” and the mutagenic call [4] was “no conclusion”. The mutagenic call (Species/Cell Type: Saccharomyces cerevisiae, Assay Type: Mitotic recombination or gene conversion, Assay Code: YEC-, Evaluation Type: Evaluation A (Pre-1980)) was “inactive; negative” and the mutagenic call [7] was “no conclusion”.

With NC(Cc1ccc(Oc2ccc(N(CCCl)CCCl)cc2)cc1)C(=O)O (stereo unspecified) the mutagenic call [2] was “active; positive”.

In the case of CON(C)C(=O)Nc1ccc(Br)cc1, the mutagenic call (Species/Cell Type: Hordeum vulgare (barley), Assay Type: Chromosome aberrations, Assay Code: HOC-, Evaluation Type: Evaluation A (Pre-1980)) is reported as “inactive; negative”.

c1csc(-c2ccc(-c3cccs3)s2)c1 was tested, and the mutagenic call [3] was “no conclusion”.

For CC1(C)S[C@@H]2[C@H](NC(=O)[C@H](N)c3ccccc3)C(=O)N2[C@H]1C(=O)O, the mutagenic call (Species/Cell Type: Escherichia coli polA (W3119 vs P3478), Assay Type: Rec-assay, DNA effects (bacterial DNA repair), Assay Code: RE1-, Evaluation Type: Evaluation A (Pre-1980)) was “inactive; negative”.

In the case of CN(C)N=Nc1c(F)cc(F)cc1F, the mutagenic call [2] is reported as “active; positive”.

For CN(C)CCCN1c2ccccc2CCc2ccccc21, the mutagenic call [6] was “no conclusion” and the mutagenic call (Species/Cell Type: Rodents, Sex: Male, Assay Type: Dominant lethal test, Assay Code: DLT-, Evaluation Type: Evaluation A (Pre-1980)) was “inactive; negative”.

Cc1ccc2cc3c4c(ccc3c3c2c1CC3)C(O)C(O)C=C4 (stereo unspecified) was tested, and the mutagenic call (Species/Cell Type: Chinese hamster lung (V79) cells, Assay Type: Forward gene mutation at the HPRT or ouabain locus, Assay Code: V79+, Evaluation Type: Evaluation A (Pre-1980)) was “active; positive”, the call [8] was “active; positive” and the mutagenic call (Species/Cell Type: Salmonella typhimurium (one or more of the five standard strains: TA98, TA100, TA1535, TA1537, and TA1538), Assay Type: Histidine reverse gene mutation, Ames assay, Assay Code: SAL+*, Activation: With metabolic activation, Evaluation Type: Evaluation A (Pre-1980)) was “active; positive”.

In the case of CCCOc1ccc(CC(=O)OC)cc1CSC(=N)N, the mutagenic call (Species/Cell Type: Saccharomyces cerevisiae, Assay Type: Reverse gene mutation, Assay Code: YERT, Evaluation Type: Evaluation A (Pre-1980)) is reported as “no conclusion”.

For NC(=O)c1cccc(N)c1, the mutagenic call (Species/Cell Type: Chinese hamster ovary (CHO) cells, Assay Type: Forward gene mutation at the HPRT locus, Assay Code: CHOT, Evaluation Type: Evaluation B (Post-1980)) was “no conclusion”, the mutagenic call (Species/Cell Type: Human, Assay Type: Sister-chromatid exchange (SCE) in vitro, Assay Code: SC1+D, Dose Response: With dose response, Evaluation Type: Evaluation B (Post-1980)) was “active; positive” and the mutagenic call (Species/Cell Type: Nonhuman, Assay Type: Sister-chromatid exchange (SCE) in vitro, Assay Code: SC2+D, Dose Response: With dose response, Evaluation Type: Evaluation B (Post-1980)) was “active; positive”.

In the case of O=C1CCCCCN1, the mutagenic call (Species/Cell Type: Chinese hamster ovary (CHO) cells, Assay Type: Forward gene mutation at the HPRT locus, Assay Code: CHO-, Evaluation Type: Evaluation B (Post-1980)) is reported as “inactive; negative” and the call (Species/Cell Type: Nonhuman, Assay Code: CCG-, Evaluation Type: Evaluation A (Pre-1980)) is reported as “inactive; negative”.

In the case of Clc1ccc2ccccc2n1, the mutagenic call [7] is reported as “no conclusion”.

With COc1cc2c(c3oc4cccc(OC(C)=O)c4c(=O)c13)C1C=COC1O2 (stereo unspecified) the mutagenic call [7] was “no conclusion”.

With CC(=O)[O][Hg][c]1ccccc1 the mutagenic call [9] was “active; positive”, the mutagenic call (Species/Cell Type: Drosophila melanogaster, Assay Type: Aneuploidy, sex chromosome gain, chromosome aberrations, Assay Code: DAG+F, Evaluation Type: Evaluation A (Pre-1980)) was “active; positive” and the mutagenic call (Species/Cell Type: Drosophila melanogaster, Assay Type: Aneuploidy, whole sex chromosome loss, chromosome aberrations, Assay Code: DAC+F, Evaluation Type: Evaluation A (Pre-1980)) was “active; positive”.

For CCN(N=O)C(C)(C)C, the mutagenic call [5] was “no conclusion”.

With Oc1cc2cccc3ccc4cc5ccccc5c1c4c32 the mutagenic call [1] was “inactive; negative”, the call [8] was “active; positive” and the mutagenic call [7] was “no conclusion”.

With [O]=[V](=[O])[OH] the mutagenic call [9] was “active; positive”.
